This passage reports IC50 results from patent publication US10035790B2, “RORγ modulators” (BRISTOL-MYERS SQUIBB COMPANY, priority 2012, dated 2018).

The IC50 is the midpoint of a concentration-inhibition curve.

Molecules are shown by their SMILES.

The target in the first assay is T1, ligand binding domain of human RORγ (A262-S507) (Homo sapiens, UniProt P51449).
T1 construct: made in house; host or cells: E. coli
T1 sequence (P51449 262-507): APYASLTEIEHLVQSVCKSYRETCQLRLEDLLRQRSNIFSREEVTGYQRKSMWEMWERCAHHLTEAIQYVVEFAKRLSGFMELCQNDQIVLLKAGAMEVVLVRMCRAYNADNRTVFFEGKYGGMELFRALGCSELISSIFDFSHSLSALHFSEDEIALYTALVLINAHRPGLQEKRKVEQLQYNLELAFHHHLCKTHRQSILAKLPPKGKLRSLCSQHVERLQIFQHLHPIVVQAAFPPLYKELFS
Nature of the assay: General RORγ SPA binding assay (competition with [3H]25-hydroxycholesterol). Particulars: IC50, RORγ SPA binding assay, inhibition of [3H]25-hydroxycholesterol binding. In outline:
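Step one: compound meets 50 nM nickel-purified, His-tagged protein from E. coli for 15 min at room temperature (PBS, 0.5% fatty acid free BSA). Step two: radioligand is added for another 15 min. Step three: SPA beads are added for 30 min before scintillation reading and IC50 fitting.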
Turning to `CC(O)(COc1ccnc(C(F)(F)F)n1)c1cnc(N)nc1C1CCN(C(=O)Oc2c(F)cccc2F)CC1` (stereo not drawn) [Compound D46, 2,6-Difluorophenyl 4-[2-amino-5-(1-hydroxy-1-methyl-2-{[2-(trifluoromethyl)pyrimidin-4-yl]oxy}ethyl)pyrimidin-4-yl]piperidine-1-carboxylate], the 50% inhibitory concentration (IC50) was found to be 6.3 nM.

Consider `CC(O)(COc1cccc(C(F)(F)F)n1)c1cnc(N)nc1C1CCN(C(=O)Oc2c(F)cccc2F)CC1` (stereo not drawn) [Compound D48, 2,6-Difluorophenyl 4-[2-amino-5-(1-hydroxy-1-methyl-2-{[6-(trifluoromethyl)pyridin-2-yl]oxy}ethyl)pyrimidin-4-yl]piperidine-1-carboxylate], for which the half-inhibitory concentration (IC50) came to 30.3 nM.

`CC(O)(COc1ccnc(C(F)(F)F)n1)c1cnc(N)nc1C1CCN(C(=O)Oc2ccccc2F)CC1` (stereo not drawn) [Compound D49, 2-Fluorophenyl 4-[2-amino-5-(1-hydroxy-1-methyl-2-{[2-(trifluoromethyl)pyrimidin-4-yl]oxy}ethyl)pyrimidin-4-yl]piperidine-1-carboxylate] showed an IC50 of 7.2 nM. `CC(O)(COc1ccnc(C(F)(F)F)n1)c1cnc(N)nc1C1CCN(C(=O)Oc2ccc(F)cc2)CC1` (stereo not drawn) [Compound D50, 4-Fluorophenyl 4-[2-amino-5-(1-hydroxy-1-methyl-2-{[2-(trifluoromethyl)pyrimidin-4-yl]oxy}ethyl)pyrimidin-4-yl]piperidine-1-carboxylate]: the IC50 turned out to be 15 nM.

The same assay, now with this note: RORγ SPA binding assay, inhibition of [3H]25-hydroxycholesterol binding; read-out: IC50.
Turning to `CC(=O)Nc1ncc(C(C)(O)COc2cccc(C(F)(F)F)n2)c(C2CCN(C(=O)Nc3c(F)cccc3F)CC2)n1` (stereo not drawn) [Compound D32, 4-[2-(Acetylamino)-5-(1-hydroxy-1-methyl-2-{[6-(trifluoromethyl)pyridin-2-yl]oxy}ethyl)pyrimidin-4-yl]-N-(2,6-difluorophenyl)piperidine-1-carboxamide], the IC50 is 13.9 nM.

Turning to `CC(=O)Nc1ncc(C(C)(O)COc2ccnc(C(F)(F)F)n2)c(C2CCN(C(=O)Cc3c(F)cccc3F)CC2)n1` (stereo not drawn) [Compound D33, N-[4-{1-[(2,6-Difluorophenyl)acetyl]piperidin-4-yl}-5-(1-hydroxy-1-methyl-2-{[2-(trifluoromethyl)pyrimidin-4-yl]oxy}ethyl)pyrimidin-2-yl]acetamide], the half-maximal inhibitory concentration (IC50) was determined as 14 nM.

Regarding `CC(O)(COc1ccnc(C(F)(F)F)n1)c1cnc(NC2CC2)nc1C1CCN(C(=O)Nc2c(F)cccc2F)CC1` (stereo not drawn) [Compound D34, 4-[2-(Cyclopropylamino)-5-(1-hydroxy-1-methyl-2-{[2-(trifluoromethyl)pyrimidin-4-yl]oxy}ethyl)pyrimidin-4-yl]-N-(2,6-difluorophenyl)piperidine-1-carboxamide], the IC50 turned out to be 15 nM. Still for that read-out and setting: under `CCNc1ncc(C(C)(O)COc2ccnc(C(F)(F)F)n2)c(C2CCN(C(=O)Nc3c(F)cccc3F)CC2)n1` (stereo not drawn) [Compound D35, N-(2,6-Difluorophenyl)-4-[2-(ethylamino)-5-(1-hydroxy-1-methyl-2-{[2-(trifluoromethyl)pyrimidin-4-yl]oxy}ethyl)pyrimidin-4-yl]piperidine-1-carboxamide] stands 14.8 nM; under `CNc1ncc(C(C)(O)COc2ccnc(C(F)(F)F)n2)c(C2CCN(C(=O)Nc3c(F)cccc3F)CC2)n1` (stereo not drawn) [Compound D36, N-(2,6-Difluorophenyl)-4-[5-(1-hydroxy-1-methyl-2-{[2-(trifluoromethyl)pyrimidin-4-yl]oxy}ethyl)-2-(methylamino)pyrimidin-4-yl]piperidine-1-carboxamide], 15.8 nM; under `COc1ccc(CNc2ncc(C(C)(O)COc3ccnc(C(F)(F)F)n3)c(C3CCN(C(=O)Nc4c(F)cccc4F)CC3)n2)c(OC)c1` (stereo not drawn) [Compound D37, 4-[2-({[2,4-Bis(methyloxy)phenyl]methyl}amino)-5-(1-hydroxy-1-methyl-2-{[2-(trifluoromethyl)pyrimidin-4-yl]oxy}ethyl)pyrimidin-4-yl]-N-(2,6-difluorophenyl)piperidine-1-carboxamide], 112 nM. Still for that read-out and setting: under `CN(C)c1ncc(C(C)(O)COc2ccnc(C(F)(F)F)n2)c(C2CCN(C(=O)Nc3c(F)cccc3F)CC2)n1` (stereo not drawn) [Compound D38, N-(2,6-Difluorophenyl)-4-[2-(dimethylamino)-5-(1-hydroxy-1-methyl-2-{[2-(trifluoromethyl)pyrimidin-4-yl]oxy}ethyl)pyrimidin-4-yl]piperidine-1-carboxamide] stands 25.9 nM.

Take `CC(O)(COc1ccnc(C(F)(F)F)n1)c1cnc(NCC(F)F)nc1C1CCN(C(=O)Nc2c(F)cccc2F)CC1` (stereo not drawn) [Compound D39, 4-{2-[(2,2-Difluoroethyl)amino]-5-(1-hydroxy-1-methyl-2-{[2-(trifluoromethyl)pyrimidin-4-yl]oxy}ethyl)pyrimidin-4-yl}-N-(2,6-difluorophenyl)piperidine-1-carboxamide]: the concentration for half-maximal inhibition (IC50) was 5.1 nM.

In the case of `CC(C)Oc1ncc(C(C)(O)COc2ccnc(C(F)(F)F)n2)c(C2CCN(C(=O)Nc3c(F)cccc3F)CC2)n1` (stereo not drawn) [Compound D40, N-(2,6-Difluorophenyl)-4-{5-(1-hydroxy-1-methyl-2-{[2-(trifluoromethyl)pyrimidin-4-yl]oxy}ethyl)-2-[(1-methylethyl)oxy]pyrimidin-4-yl}piperidine-1-carboxamide], the half-maximal inhibitory concentration (IC50) was 29.6 nM. Same read-out and setting: under `CC(O)(COc1ccnc(C(F)(F)F)n1)c1cnc(OCC(F)F)nc1C1CCN(C(=O)Nc2c(F)cccc2F)CC1` (stereo not drawn) [Compound D41, 4-{2-[(2,2-Difluoroethyl)oxy]-5-(1-hydroxy-1-methyl-2-{[2-(trifluoromethyl)pyrimidin-4-yl]oxy}ethyl)pyrimidin-4-yl}-N-(2,6-difluorophenyl)piperidine-1-carboxamide] stands 101 nM; under `CC(O)(COc1ccnc(C(F)(F)F)n1)c1cnc(OC(CF)CF)nc1C1CCN(C(=O)Nc2c(F)cccc2F)CC1` (stereo not drawn) [Compound D42, N-(2,6-Difluorophenyl)-4-[2-{[2-fluoro-1-(fluoromethyl)ethyl]oxy}-5-(1-hydroxy-1-methyl-2-{[2-(trifluoromethyl)pyrimidin-4-yl]oxy}ethyl)pyrimidin-4-yl]piperidine-1-carboxamide], 348 nM; under `CC(O)(COc1ccnc(C(F)(F)F)n1)c1cnc(OCCF)nc1C1CCN(C(=O)Nc2c(F)cccc2F)CC1` (stereo not drawn) [Compound D43, N-(2,6-Difluorophenyl)-4-{2-[(2-fluoroethyl)oxy]-5-(1-hydroxy-1-methyl-2-{[2-(trifluoromethyl)pyrimidin-4-yl]oxy}ethyl)pyrimidin-4-yl}piperidine-1-carboxamide], 22 nM. Turning to `COc1ncc(C(C)(O)COc2ccnc(C(F)(F)F)n2)c(C2CCN(C(=O)Nc3c(F)cccc3F)CC2)n1` (stereo not drawn) [Compound D44, N-(2,6-Difluorophenyl)-4-[5-(1-hydroxy-1-methyl-2-{[2-(trifluoromethyl)pyrimidin-4-yl]oxy}ethyl)-2-(methyloxy)pyrimidin-4-yl]piperidine-1-carboxamide], the IC50 worked out at 4.6 nM. Take `COc1ncc(C(C)(O)COc2cccc(C(F)(F)F)n2)c(C2CCN(C(=O)Nc3c(F)cccc3F)CC2)n1` (stereo not drawn) [Compound D45, N-(2,6-Difluorophenyl)-4-[5-(1-hydroxy-1-methyl-2-{[6-(trifluoromethyl)pyridin-2-yl]oxy}ethyl)-2-(methyloxy)pyrimidin-4-yl]piperidine-1-carboxamide]: the half-maximal inhibitory concentration (IC50) came to 3.4 nM. Consider `Cc1ncc(C(C)(O)Cc2cccc(C(F)(F)F)n2)c(C2CCN(C(=O)Nc3c(F)cccc3F)CC2)n1` (stereo not drawn) [Compound D47, N-(2,6-Difluorophenyl)-4-(5-{1-hydroxy-1-methyl-2-[6-(trifluoromethyl)pyridin-2-yl]ethyl}-2-methylpyrimidin-4-yl)piperidine-1-carboxamide], for which the half-inhibitory concentration (IC50) is 52.9 nM. Still for that read-out and setting: under `COCC(C)(OCc1cc(C)cc(C)c1)c1cnc(C)nc1C1CCN(C(=O)Cc2c(F)cccc2F)CC1` (stereo not drawn) [Compound E1, 2-(2,6-Difluorophenyl)-1-(4-(5-(2-(3,5-dimethylbenzyloxy)-1-methoxypropan-2-yl)-2-methylpyrimidin-4-yl)piperidin-1-yl)ethanone] stands 6.3 nM.

On to `CCOCC(C)(OCc1cc(C)cc(C)c1)c1cnc(C)nc1C1CCN(C(=O)Cc2c(F)cccc2F)CC1` (stereo not drawn) [Compound E2, 2-(2,6-difluorophenyl)-1-(4-(5-(2-((3,5-dimethylbenzyl)oxy)-1-ethoxypropan-2-yl)-2-methylpyrimidin-4-yl)piperidin-1-yl)ethanone], for which the 50% inhibitory concentration (IC50) was determined as 5.3 nM. In the case of `Cc1cc(C)cc(COC(C)(COCC(O)CO)c2cnc(C)nc2C2CCN(C(=O)Cc3c(F)cccc3F)CC2)c1` (stereo not drawn) [Compound E3, 2-(2,6-difluorophenyl)-1-(4-(5-(1-(2,3-dihydroxypropoxy)-2-((3,5-dimethylbenzyl)oxy)propan-2-yl)-2-methylpyrimidin-4-yl)piperidin-1-yl)ethanone], the half-inhibitory concentration (IC50) was 6.2 nM. Regarding `Cc1cc(C)cc(COC(C)(CO)c2cnc(C)nc2C2CCN(C(=O)Cc3c(F)cccc3F)CC2)c1` (stereo not drawn) [Compound E4, 2-(2,6-difluorophenyl)-1-(4-(5-(2-((3,5-dimethylbenzyl)oxy)-1-hydroxypropan-2-yl)-2-methylpyrimidin-4-yl)piperidin-1-yl)ethanone], the IC50 worked out at 16.7 nM. On the same count and under the same terms, under `Cc1cc(C)cc(COC(C)(C)c2cnc(C)nc2C2CCN(C(=O)Cc3c(F)cccc3F)CC2)c1` [Compound E5, 2-(2,6-Difluorophenyl)-1-(4-(5-(2-(3,5-dimethylbenzyloxy)propan-2-yl)-2-methylpyrimidin-4-yl)piperidin-1-yl)ethanone] stands 10.6 nM.
